The numbers were not newly measured in patent US20030180354A1 (DR. REDDY'S LABORATORIES LIMITED, priority 2001, published 2003), which cites them from elsewhere.

For this data set the following is noted: in man.

Regarding `CCOC(=O)C1=C(COCCN)NC(C)=C(C(=O)OC)C1c1ccccc1Cl` (racemic) [Amlodipine, (±)-2-[(2-Aminoethoxy)methyl]-4-(2-chlorophenyl)-3-ethoxycarbonyl-5-methoxycarbonyl-6-methyl-1,4-dihydropyridine], the Oral bioavailability was 64%.
